Experimental data reported in ChEMBL document CHEMBL3507680, “University of Dundee, Gates Library screen for HepG2 cell viability”.

Test: Human HepG2 cell viability assay in 384 well format
Assay type: toxicity, cell-based
Set-up: dose 125 nL, time 70.5 hour; cytotoxicity at 70.5 h: concentration not given beside the values
Conditions: HepG2 cells, read-out: Inhibition

## Cc1ncc(C(=O)N2CC[C@@]3(O)CCN(C(=O)N(C)C)C[C@H]3C2)cn1
  cytotoxicity at 70.5 h: -12.2%

## COc1nc2c(cc1C(=O)NCc1nc(CSC)no1)CCC2
  cytotoxicity at 70.5 h: -5.89%

## c1ccc(C2CCCN(c3ncnc4c3CCNC4)CC2)cc1 (stereo not drawn)
  cytotoxicity at 70.5 h: 2.81%

## CC(=O)N1CCc2[nH]cnc2C12CCN(C(=O)Cc1cccs1)CC2
  cytotoxicity at 70.5 h: -9.66%

## Cc1nc(NC2CCS(=O)(=O)CC2)cc(C2CCCNC2)n1 (stereo not drawn)
  cytotoxicity at 70.5 h: -7.39%

## O=C(CCN1CCCCO1)NCCSc1cnn[nH]1
  cytotoxicity at 70.5 h: -3.27%

## CNc1ccc(C)cc1C(=O)N[C@H]1C[C@H]2CN(C)CCN2C1
  cytotoxicity at 70.5 h: -13.3%

## CCC(OC)C(=O)N1CCC2(CC1)c1nc[nH]c1CCN2S(C)(=O)=O (stereo not drawn)
  cytotoxicity at 70.5 h: 32.6%

## Cc1n[nH]c(CCC(=O)N2CCOC(Cc3ccc(F)cc3)C2)c1C (stereo not drawn)
  cytotoxicity at 70.5 h: 10.5%

## Cc1nc[nH]c1-c1nccn1-c1cccc(CN2CCCC2)c1
  cytotoxicity at 70.5 h: 13%

## CCOC(=O)CNC(=O)N1CCOC(Cc2ccc(OC)cc2)C1 (stereo not drawn)
  cytotoxicity at 70.5 h: -0.738%

## CC(C)C1CN(S(=O)(=O)N(C)C)CCCN1Cc1ccc(F)cc1 (stereo not drawn)
  cytotoxicity at 70.5 h: 2.12%

## c1ccc(CCCC2CN(Cc3ncc[nH]3)CCO2)cc1 (stereo not drawn)
  cytotoxicity at 70.5 h: -6.86%

## O=C(c1ccc(S(=O)(=O)NCc2ccon2)cc1)N1CCCCCC1
  cytotoxicity at 70.5 h: -7.49%

## Cc1cccnc1[C@H](C)Nc1nc(-c2cccnc2)nc2c1CNC2
  cytotoxicity at 70.5 h: -8.07%

## COc1ccc2c(=O)n(CC3CCCN(C)C3)ccc2c1OC (stereo not drawn)
  cytotoxicity at 70.5 h: 10.5%

## Cc1nn(C2CCCC2)c2nc(C(C)(C)CN3CCN(C)CC3)[nH]c12
  cytotoxicity at 70.5 h: -2.47%

## CC(C)c1nccn1C(C)C(=O)N1CCN(c2ccccc2Cl)CC1 (stereo not drawn)
  cytotoxicity at 70.5 h: -4.99%

## CCCN1CCN(C(=O)c2cc[nH]n2)[C@H]2CS(=O)(=O)C[C@H]21
  cytotoxicity at 70.5 h: -11.3%

## O=C(O)c1cc(C2=CCCCC2)cc(S(=O)(=O)NCc2ccccn2)c1
  cytotoxicity at 70.5 h: -8.44%

## CC(C)c1nnc(N2C[C@@H]3CC[C@H](C2)N(CC2CCC2)C3)s1
  cytotoxicity at 70.5 h: -2.56%

## CC(C)c1ncc(CN2C[C@@H](CN3CCCC3)[C@@H](CO)C2)cn1
  cytotoxicity at 70.5 h: 0.637%

## COc1cc(N2C[C@@H]3CC[C@H](C2)N(CC2CCC2)C3=O)ncn1
  cytotoxicity at 70.5 h: -3.49%

## O=C1CCN(Cc2cnc3c(-c4ccccc4)cnn3c2)CCN1
  cytotoxicity at 70.5 h: -9.5%

## Cc1ccc(OCC2CCCN(c3nc(CO)cs3)C2)cc1 (stereo not drawn)
  cytotoxicity at 70.5 h: -0.763%

## O=C(NCc1cnn2cccnc12)c1cccc(CC2CCNCC2)c1
  cytotoxicity at 70.5 h: 5.06%

## CC(C)=CCCC(C)CN1CCC(n2cc(CO)nn2)CC1 (stereo not drawn)
  cytotoxicity at 70.5 h: -4.45%

## CN(CC(=O)N1CCOCC(CO)C1)Cc1ccc(F)cc1 (stereo not drawn)
  cytotoxicity at 70.5 h: -12.7%

## O=C(C1CCOC1)N1CCC(Cn2cc(-c3ccsc3)nn2)CC1 (stereo not drawn)
  cytotoxicity at 70.5 h: -11.1%

## COc1ncccc1-c1ncccc1NC(=O)C(C)C
  cytotoxicity at 70.5 h: -6.31%

## CCn1c(CC2CCN(S(=O)(=O)N3CCCCC3)CC2)nn(C)c1=O
  cytotoxicity at 70.5 h: -3.16%

## O=C(N1CCCC1)N1CCCC(c2nccn2Cc2ccncc2)C1 (stereo not drawn)
  cytotoxicity at 70.5 h: -8.72%

## Cc1nnc(NC(=O)N2CCN(Cc3ccc(F)cc3)C(=O)C2)s1
  cytotoxicity at 70.5 h: 1.21%

## CN(C)c1nc(-c2ccncc2)nc2c1CCN(C(=O)[C@H](N)CO)C2
  cytotoxicity at 70.5 h: -6.08%

## Cc1ccc(C(=O)N2CCC(c3nccn3C(C)C)CC2)c(=O)[nH]1
  cytotoxicity at 70.5 h: -6.37%

## O=C(O)C1(n2cccn2)CCN(c2nc(-c3ccccc3)no2)CC1
  cytotoxicity at 70.5 h: 0.502%

## O=C(NCCc1ccccc1)c1cn(CCNCc2cccnc2)nn1
  cytotoxicity at 70.5 h: -6.19%

## CCCN1CCN(Cc2cn(CCC(N)=O)c3ccccc23)CC1
  cytotoxicity at 70.5 h: -3.42%

## Cc1cccnc1C(Nc1nccc(C2CCCC2)n1)C1CC1 (stereo not drawn)
  cytotoxicity at 70.5 h: 0.357%

## CCC(=O)c1ccc(OCC(=O)NC(C)c2nnc(C)[nH]2)cc1 (stereo not drawn)
  cytotoxicity at 70.5 h: -3.79%

## Cc1nc(NCC23CCCN2CCC3)cc(C2CCCNC2)n1 (stereo not drawn)
  cytotoxicity at 70.5 h: -4.8%

## N[C@@H]1CCN(Cc2ccccc2CS(=O)(=O)c2ccccc2)C[C@H]1O
  cytotoxicity at 70.5 h: -8.1%

## Cc1ccc(C#N)c(N2CCCC(c3nccn3Cc3cscn3)C2)n1 (stereo not drawn)
  cytotoxicity at 70.5 h: -3.22%

## Cc1nnc(CN2CCC3(CCC(=O)N(C4CC4)C3)CC2)o1
  cytotoxicity at 70.5 h: 11.6%

## Cc1cc(-c2nn(C)c(Cl)c2CN2CC[C@H](CO)[C@@H](O)C2)no1
  cytotoxicity at 70.5 h: 8.05%

## COC(=O)c1cc2n(n1)CCCN(C(=O)Cc1c[nH]c3ccccc13)C2
  cytotoxicity at 70.5 h: -13.9%

## COc1cc(-n2ccnc2-c2ccc(C(=O)O)s2)ccc1NC(C)=O
  cytotoxicity at 70.5 h: -7.67%

## Cc1ccc(C2(O)CCN(C(=O)c3cccc(S(C)(=O)=O)c3)CC2)nc1
  cytotoxicity at 70.5 h: -4.42%

## CC(C)N1CCCC2(CCN(Cc3noc(C4CCCC4)n3)C2)C1=O (stereo not drawn)
  cytotoxicity at 70.5 h: 11%

## CCc1cnc(N)nc1NCCCn1cc(Cl)cn1
  cytotoxicity at 70.5 h: -5.81%

## COc1ccnc(N2CCC3(CCCN(C(C)C)C3=O)C2)n1 (stereo not drawn)
  cytotoxicity at 70.5 h: -1.71%

## O=C(c1ccc(O)cn1)N1CCOC(c2ccc(Cl)c(Cl)c2)C1 (stereo not drawn)
  cytotoxicity at 70.5 h: -3.33%

## CC(CC(F)(F)F)NCc1ccccc1-n1ccnc1 (stereo not drawn)
  cytotoxicity at 70.5 h: -10.9%

## c1ccc(-c2nc3c(c(NCCCn4cncn4)n2)CCNCC3)nc1
  cytotoxicity at 70.5 h: -13.5%

## CC(C)(C)c1nc(CN2CCC3(CCCO3)CCC2=O)no1 (stereo not drawn)
  cytotoxicity at 70.5 h: -5.98%

## COc1ccc(F)c(CN2CCCC(c3cc(O)nc(C)n3)C2)c1 (stereo not drawn)
  cytotoxicity at 70.5 h: -3.96%

## Cc1ncsc1CCN(C)C(=O)CN1CCOC1=O
  cytotoxicity at 70.5 h: 8.27%

## O=c1cc(CN2CC[C@H]3CC[C@@H](C2)N3)c2cccc3c2n1CCC3
  cytotoxicity at 70.5 h: -14.4%

## COCCN1CC2(CCCN(c3ncc(Cl)cc3F)C2)CCC1=O (stereo not drawn)
  cytotoxicity at 70.5 h: 3.19%

## Cc1cc(N2CCC(CO)(CC3CCCCO3)CC2)c2ccccc2n1 (stereo not drawn)
  cytotoxicity at 70.5 h: 2.86%

## CN(C)c1nc2c(c(N(C)C)n1)CCN(C(=O)CN1C[C@@H]3CC[C@H]1C3)C2
  cytotoxicity at 70.5 h: -6.59%

## CC1(C)OC(=O)N(CCCC(=O)c2ccc(F)cc2)C1=O
  cytotoxicity at 70.5 h: -16.8%

## COc1ccccc1-n1cc(CN2CCN(C)[C@@H]3CS(=O)(=O)C[C@@H]32)cn1
  cytotoxicity at 70.5 h: -7.42%

## Cc1ccc(CNC(=O)CCN2CCOC(C(F)(F)F)C2)cc1 (stereo not drawn)
  cytotoxicity at 70.5 h: -2.06%

## CC(CN1CCCC1)C(=O)NCC1CCN(c2cnn(C)c(=O)c2)CC1 (stereo not drawn)
  cytotoxicity at 70.5 h: -5.06%

## Cc1ccc(Oc2ncccc2CNS(=O)(=O)N2CCOCC2)cn1
  cytotoxicity at 70.5 h: -4.6%

## CC(C)n1ccnc1C1CCCN(c2ccncc2F)C1 (stereo not drawn)
  cytotoxicity at 70.5 h: -5.94%

## COCC1CCN(S(=O)(=O)NCC2COc3ccccc3C2)CC1 (stereo not drawn)
  cytotoxicity at 70.5 h: 13.9%

## COc1ccc2c(C)c(C(=O)N3CCC(NC(C)=O)C3)oc2c1 (stereo not drawn)
  cytotoxicity at 70.5 h: -3.36%

## Cc1c(Cl)c(C(=O)N2C[C@@H](C(=O)O)[C@H](c3cccnc3)C2)nn1C
  cytotoxicity at 70.5 h: 8.35%

## Cc1ccc2c(C)c(C(=O)NCCc3csc(N)n3)oc2c1
  cytotoxicity at 70.5 h: 7.44%

## Cc1ccc(C2(CN(C)Cc3sccc3C)CCNCC2)nc1
  cytotoxicity at 70.5 h: 10.6%

## Cc1ccc(OC2CCN(C(=O)Cc3c(C)[nH]c(=O)[nH]c3=O)CC2)cc1
  cytotoxicity at 70.5 h: -10.2%

## CCc1nc2c(N3CCCC(c4nccn4CCOC)C3)ncnc2o1 (stereo not drawn)
  cytotoxicity at 70.5 h: 26.1%

## CCCn1cnnc1CNC(=O)CC1C(=O)NCCN1CC=C(C)C (stereo not drawn)
  cytotoxicity at 70.5 h: -0.65%

## O=C(c1ccc(Cl)s1)N1CCCn2nc(CN3CC[C@H](F)C3)cc2C1
  cytotoxicity at 70.5 h: -10.2%

## CCCn1ncc(CN2CCCC(C(=O)c3ccc(Cl)cc3C)C2)c1C (stereo not drawn)
  cytotoxicity at 70.5 h: -7.11%

## Cc1cccc(=O)n1CCCNc1nc(N(C)C)nc2c1CCNCC2
  cytotoxicity at 70.5 h: -3.24%
